Tests used:
Liver microsome [1] = experiment: Drug metabolism in dog liver microsomes assessed as ER-879123 formation at 10 uM after 60 mins in presence of NADH and carboxylesterase inhibitor BNPP by LC-MS/MS method; format: ADME, Canis lupus familiaris; conditions: 1 h
Liver microsome [2] = experiment: Drug metabolism in human liver microsomes assessed as ER-879123 formation at 10 uM after 60 mins in presence of NADH and carboxylesterase inhibitor BNPP by LC-MS/MS method; format: ADME; conditions: 1 h
[3] = target: T1, Flavin-containing monooxygenase 3 (Homo sapiens, UniProt P31513); experiment: Drug metabolism assessed as human recombinant FMO3-mediated ER-879123 formation in presence NADH at 10 uM after 60 mins by LC-MS/MS method; format: ADME; conditions: recombinant enzyme, 1 h
T1 sequence (P31513 whole entry): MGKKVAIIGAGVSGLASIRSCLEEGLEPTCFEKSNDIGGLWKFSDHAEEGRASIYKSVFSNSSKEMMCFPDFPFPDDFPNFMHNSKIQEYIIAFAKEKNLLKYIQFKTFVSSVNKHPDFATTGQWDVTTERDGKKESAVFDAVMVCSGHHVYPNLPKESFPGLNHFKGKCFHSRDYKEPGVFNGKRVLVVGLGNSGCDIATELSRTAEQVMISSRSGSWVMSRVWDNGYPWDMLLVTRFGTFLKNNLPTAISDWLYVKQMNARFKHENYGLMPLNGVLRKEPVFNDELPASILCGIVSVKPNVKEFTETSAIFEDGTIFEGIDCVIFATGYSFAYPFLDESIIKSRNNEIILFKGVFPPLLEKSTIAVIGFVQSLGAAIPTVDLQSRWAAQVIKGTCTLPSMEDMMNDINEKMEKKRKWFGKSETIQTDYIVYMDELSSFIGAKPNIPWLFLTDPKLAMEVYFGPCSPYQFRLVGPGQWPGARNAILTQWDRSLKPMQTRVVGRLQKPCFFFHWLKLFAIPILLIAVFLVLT

Liver microsome [4] = experiment: Drug metabolism in 50 degC treated dog liver microsomes assessed as ER-879123 formation at 10 uM after 60 mins in absence of NAD+ by LC-MS/MS method; format: ADME, Canis lupus familiaris; conditions: 1 h
[5] = target: T2, Flavin-containing monooxygenase 1 (Homo sapiens, UniProt Q01740); experiment: Drug metabolism assessed as human recombinant FMO1-mediated ER-879123 formation in presence NADH at 10 uM after 60 mins by LC-MS/MS method; format: ADME; conditions: recombinant enzyme, 1 h
T2 sequence (Q01740 whole entry): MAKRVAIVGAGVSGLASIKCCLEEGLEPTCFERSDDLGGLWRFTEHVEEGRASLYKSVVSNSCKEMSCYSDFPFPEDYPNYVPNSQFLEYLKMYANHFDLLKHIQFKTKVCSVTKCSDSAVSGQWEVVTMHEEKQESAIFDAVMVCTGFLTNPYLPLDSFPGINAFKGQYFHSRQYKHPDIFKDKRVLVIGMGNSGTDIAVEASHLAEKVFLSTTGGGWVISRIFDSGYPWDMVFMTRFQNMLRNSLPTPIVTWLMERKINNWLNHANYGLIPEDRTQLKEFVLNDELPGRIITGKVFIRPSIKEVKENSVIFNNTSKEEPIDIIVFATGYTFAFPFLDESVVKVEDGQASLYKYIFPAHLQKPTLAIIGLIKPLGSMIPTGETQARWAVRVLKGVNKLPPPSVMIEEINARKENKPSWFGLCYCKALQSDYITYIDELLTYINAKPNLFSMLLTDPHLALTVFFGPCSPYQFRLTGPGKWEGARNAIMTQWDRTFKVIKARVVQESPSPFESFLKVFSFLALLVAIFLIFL

[6] = target: T3, Flavin-containing monooxygenase 5 (Homo sapiens, UniProt P49326); experiment: Drug metabolism assessed as human recombinant FMO5-mediated ER-879123 formation in presence NADH at 10 uM after 60 mins by LC-MS/MS method; format: ADME; conditions: recombinant enzyme, 1 h
T3 sequence (P49326 whole entry): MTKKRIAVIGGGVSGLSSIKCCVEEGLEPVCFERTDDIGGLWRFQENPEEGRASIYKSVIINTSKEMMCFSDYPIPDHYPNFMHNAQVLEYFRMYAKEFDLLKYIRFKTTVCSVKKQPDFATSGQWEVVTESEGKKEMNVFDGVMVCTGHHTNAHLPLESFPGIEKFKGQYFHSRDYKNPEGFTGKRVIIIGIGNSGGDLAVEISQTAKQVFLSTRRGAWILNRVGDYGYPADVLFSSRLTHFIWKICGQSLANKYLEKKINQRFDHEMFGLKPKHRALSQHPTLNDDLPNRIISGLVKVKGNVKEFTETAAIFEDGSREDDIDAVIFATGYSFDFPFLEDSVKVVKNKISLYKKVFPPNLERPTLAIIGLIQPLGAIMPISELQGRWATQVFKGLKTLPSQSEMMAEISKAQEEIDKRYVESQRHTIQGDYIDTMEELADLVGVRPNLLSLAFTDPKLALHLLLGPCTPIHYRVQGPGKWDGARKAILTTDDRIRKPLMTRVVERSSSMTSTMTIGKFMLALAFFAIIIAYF

[7] = target: T3, Flavin-containing monooxygenase 5; experiment: Drug metabolism assessed as human recombinant FMO5-mediated ER-879123 formation at 10 uM after 60 mins by LC-MS/MS method in presence of NADPH; format: ADME; conditions: recombinant enzyme, 1 h
Liver microsome [8] = experiment: Drug metabolism in dog liver microsomes assessed as ER-879123 formation at 10 uM after 60 mins in presence of NADH by LC-MS/MS method; format: ADME, Canis lupus familiaris; conditions: 1 h
[9] = target: T2, Flavin-containing monooxygenase 1; experiment: Drug metabolism assessed as human recombinant FMO1-mediated ER-879123 formation at 10 uM after 60 mins by LC-MS/MS method in presence of NADPH; format: ADME; conditions: recombinant enzyme, 1 h
Liver microsome [10] = experiment: Drug metabolism in dog liver microsomes assessed as ER-879123 formation at 10 uM after 60 mins in presence of NADH and FMO1 and FMO3 substrate/inhibitor methimazole by LC-MS/MS method; format: ADME, Canis lupus familiaris; conditions: 1 h
[11] = target: T1, Flavin-containing monooxygenase 3; experiment: Drug metabolism assessed as human recombinant FMO3-mediated ER-879123 formation at 10 uM after 60 mins by LC-MS/MS method in presence of NADPH; format: ADME; conditions: recombinant enzyme, 1 h
Liver microsome [12] = experiment: Drug metabolism in 50 degC treated human liver microsomes assessed as ER-879123 formation at 10 uM after 60 mins in absence of NAD+ by LC-MS/MS method; format: ADME; conditions: 1 h
Liver microsome [13] = experiment: Drug metabolism in human liver microsomes assessed as ER-879123 formation at 10 uM after 60 mins in presence of NADH by LC-MS/MS method; format: ADME; conditions: 1 h
Liver microsome [14] = experiment: Drug metabolism in human liver microsomes assessed as ER-879123 formation at 10 uM after 60 mins in presence of NADH and FMO1 and FMO3 substrate/inhibitor methimazole by LC-MS/MS method; format: ADME; conditions: 1 h
[15] = Drug metabolism in human liver S9 fraction assessed as ER-879123 formation at 50 uM after 60 mins in presence of NAD+ and FMO1 and FMO3 substrate/inhibitor methimazole by LC-MS/MS method; format: ADME, subcellular; conditions: s9, 1 h
[16] = target: T3, Flavin-containing monooxygenase 5; experiment: Drug metabolism assessed as human recombinant FMO5-mediated ER-879123 formation in absence of dog liver cytosolic fractions at 50 uM after 60 mins by LC-MS/MS method; format: ADME, tissue-based; conditions: recombinant enzyme, 1 h
[17] = target: T3, Flavin-containing monooxygenase 5; experiment: Drug metabolism assessed as human recombinant FMO5-mediated ER-879123 formation in presence of human liver cytosolic fractions at 50 uM after 60 mins by LC-MS/MS method; format: ADME, tissue-based; conditions: recombinant enzyme, 1 h
[18] = Drug metabolism in dog hepatocytes assessed as ER-879123 formation at 50 uM after 120 mins in presence of NADPH by LC-MS/MS method; format: ADME, cell-based, Canis lupus familiaris, Hepatocyte; conditions: 2 h
[19] = target: T3, Flavin-containing monooxygenase 5; experiment: Drug metabolism assessed as human recombinant FMO5-mediated ER-879123 formation in presence of rat liver cytosolic fractions at 50 uM after 60 mins by LC-MS/MS method; format: ADME, tissue-based; conditions: recombinant enzyme, 1 h
[20] = target: T3, Flavin-containing monooxygenase 5; experiment: Drug metabolism assessed as human recombinant FMO5-mediated ER-879123 formation in absence of human liver cytosolic fractions at 50 uM after 60 mins by LC-MS/MS method; format: ADME, tissue-based; conditions: recombinant enzyme, 1 h
[21] = target: T2, Flavin-containing monooxygenase 1; experiment: Drug metabolism assessed as human recombinant FMO1-mediated ER-879123 formation in presence of dog liver cytosolic fractions and NAD+ at 50 uM after 60 mins by LC-MS/MS method; format: ADME, tissue-based; conditions: recombinant enzyme, 1 h
[22] = target: T3, Flavin-containing monooxygenase 5; experiment: Drug metabolism assessed as human recombinant FMO5-mediated ER-879123 formation in presence of dog liver cytosolic fractions at 50 uM after 60 mins by LC-MS/MS method; format: ADME, tissue-based; conditions: recombinant enzyme, 1 h
[23] = Drug metabolism in rat hepatocytes assessed as ER-879123 formation at 50 uM after 120 mins in presence of NADPH by LC-MS/MS method; format: ADME, cell-based, Hepatocyte; conditions: 2 h
[24] = Drug metabolism in dog liver S9 fraction assessed as ER-879123 formation at 50 uM after 60 mins in presence of NADP+ by LC-MS/MS method; format: ADME, subcellular, Canis lupus familiaris; conditions: s9, 1 h
[25] = target: T3, Flavin-containing monooxygenase 5; experiment: Drug metabolism assessed as human recombinant FMO5-mediated ER-879123 formation in absence of rat liver cytosolic fractions at 50 uM after 60 mins by LC-MS/MS method; format: ADME, tissue-based; conditions: recombinant enzyme, 1 h
[26] = Drug metabolism in dog liver S9 fraction assessed as ER-879123 formation at 50 uM after 60 mins in presence of NAD+ by LC-MS/MS method; format: ADME, subcellular, Canis lupus familiaris; conditions: s9, 1 h
[27] = Drug metabolism in human hepatocytes assessed as ER-879123 formation at 50 uM after 120 mins in presence of NADPH by LC-MS/MS method; format: ADME, cell-based, Hepatocyte; conditions: 2 h
[28] = Drug metabolism in human liver S9 fraction assessed as ER-879123 formation at 50 uM after 60 mins in presence of NADP+ by LC-MS/MS method; format: ADME, subcellular; conditions: s9, 1 h
[29] = target: T1, Flavin-containing monooxygenase 3; experiment: Drug metabolism assessed as human recombinant FMO3-mediated ER-879123 formation in presence of dog liver cytosolic fractions and NAD+ at 50 uM after 60 mins by LC-MS/MS method; format: ADME, tissue-based; conditions: recombinant enzyme, 1 h
[30] = Drug metabolism in dog liver S9 fraction assessed as ER-879123 formation at 50 uM after 60 mins in presence of NAD+ and FMO1 and FMO3 substrate/inhibitor methimazole by LC-MS/MS method; format: ADME, subcellular, Canis lupus familiaris; conditions: s9, 1 h
Liver microsome [31] = experiment: Drug metabolism in dog liver microsomes assessed as ER-879123 formation at 50 uM after 60 mins in presence of NADPH by LC-MS/MS method; format: ADME, Canis lupus familiaris; conditions: 1 h
Liver microsome [32] = experiment: Drug metabolism in human liver microsomes assessed as ER-879123 formation at 50 uM after 60 mins in presence of NADPH by LC-MS/MS method; format: ADME; conditions: 1 h
[33] = Drug metabolism in human liver S9 fraction assessed as ER-879123 formation at 50 uM after 60 mins in presence of NAD+ and carboxylesterase inhibitor BNPP by LC-MS/MS method; format: ADME, subcellular; conditions: 1 h
[34] = Drug metabolism in human liver S9 fraction assessed as ER-879123 formation at 50 uM after 60 mins in presence of NAD+ by LC-MS/MS method; format: ADME, subcellular; conditions: s9, 1 h
[35] = Drug metabolism in human liver S9 fraction assessed as ER-879123 formation at 50 uM after 60 mins in presence of NAD+ and alcohol dehydrogenase inhibitor 4-methylpyrazole by LC-MS/MS method; format: ADME, subcellular; conditions: s9, 1 h
[36] = Drug metabolism in 50 degC treated dog liver S9 fraction assessed as ER-879123 formation at 50 uM after 60 mins in absence of NAD+ by LC-MS/MS method; format: ADME, tissue-based, Canis lupus familiaris; conditions: s9, 1 h
[37] = Drug metabolism in 50 degC treated human liver S9 fraction assessed as ER-879123 formation at 50 uM after 60 mins in absence of NAD+ by LC-MS/MS method; format: ADME, tissue-based; conditions: s9, 1 h
Liver microsome [38] = experiment: Drug metabolism in rat liver microsomes assessed as ER-879123 formation at 50 uM after 60 mins in presence of NADPH by LC-MS/MS method; format: ADME; conditions: 1 h
[39] = Drug metabolism in dog liver S9 fraction assessed as ER-879123 formation at 50 uM after 60 mins in presence of NAD+ and alcohol dehydrogenase inhibitor 4-methylpyrazole by LC-MS/MS method; format: ADME, subcellular, Canis lupus familiaris; conditions: s9, 1 h
[40] = Drug metabolism in dog liver S9 fraction assessed as ER-879123 formation at 50 uM after 60 mins in presence of NAD+ and carboxylesterase inhibitor BNPP by LC-MS/MS method; format: ADME, subcellular, Canis lupus familiaris; conditions: 1 h

Measured: Drug metabolism

O=C1CCN(Cc2ccc3c(c2)-c2n[nH]c(=O)c4cccc(c24)O3)CC1
metabolite_not_detected: Liver microsome [1] | Liver microsome [2] | [3] | Liver microsome [4] | [5] | [9] | [11] | Liver microsome [12]
metabolite_detected: [6] | [7] | Liver microsome [8] | Liver microsome [10] | Liver microsome [13] | Liver microsome [14]

O=c1[nH]nc2c3c(cccc13)Oc1ccc(CN3CCC(O)CC3)cc1-2 [E-7016]
metabolite_detected: [15] | [17] | [18] | [19] | [22] | [23] | [24] | [26] | [27] | [28] | [30] | [34]
metabolite_not_detected: [16] | [20] | [21] | [25] | [29] | Liver microsome [31] | Liver microsome [32] | [33] | [35] | [36] | [37] | Liver microsome [38] | [39] | [40]

From ChEMBL document CHEMBL3525952, “A Baeyer-Villiger oxidation specifically catalyzed by human flavin-containing monooxygenase 5” (Drug Metab Dispos, 2011)
